Drawing on patent publication US20240083897A1, “GCN2 MODULATING COMPOUNDS AND USES THEREOF” (HiberCell, Inc., priority 2021, published 2024), this text covers IC50 for 29 compounds.

pIC50: −log10 of the molar value.

For orientation: pIC50 means the negative decadic logarithm of the IC50, by convention in mol/L. Read a high pIC50 as a low IC50.

In one assay the target is GCN2 (Homo sapiens (Human), UniProt Q9P2K8). In words: TR-FRET biochemical assay for inhibition of GCN2.
Sequence of GCN2 (Q9P2K8 whole entry): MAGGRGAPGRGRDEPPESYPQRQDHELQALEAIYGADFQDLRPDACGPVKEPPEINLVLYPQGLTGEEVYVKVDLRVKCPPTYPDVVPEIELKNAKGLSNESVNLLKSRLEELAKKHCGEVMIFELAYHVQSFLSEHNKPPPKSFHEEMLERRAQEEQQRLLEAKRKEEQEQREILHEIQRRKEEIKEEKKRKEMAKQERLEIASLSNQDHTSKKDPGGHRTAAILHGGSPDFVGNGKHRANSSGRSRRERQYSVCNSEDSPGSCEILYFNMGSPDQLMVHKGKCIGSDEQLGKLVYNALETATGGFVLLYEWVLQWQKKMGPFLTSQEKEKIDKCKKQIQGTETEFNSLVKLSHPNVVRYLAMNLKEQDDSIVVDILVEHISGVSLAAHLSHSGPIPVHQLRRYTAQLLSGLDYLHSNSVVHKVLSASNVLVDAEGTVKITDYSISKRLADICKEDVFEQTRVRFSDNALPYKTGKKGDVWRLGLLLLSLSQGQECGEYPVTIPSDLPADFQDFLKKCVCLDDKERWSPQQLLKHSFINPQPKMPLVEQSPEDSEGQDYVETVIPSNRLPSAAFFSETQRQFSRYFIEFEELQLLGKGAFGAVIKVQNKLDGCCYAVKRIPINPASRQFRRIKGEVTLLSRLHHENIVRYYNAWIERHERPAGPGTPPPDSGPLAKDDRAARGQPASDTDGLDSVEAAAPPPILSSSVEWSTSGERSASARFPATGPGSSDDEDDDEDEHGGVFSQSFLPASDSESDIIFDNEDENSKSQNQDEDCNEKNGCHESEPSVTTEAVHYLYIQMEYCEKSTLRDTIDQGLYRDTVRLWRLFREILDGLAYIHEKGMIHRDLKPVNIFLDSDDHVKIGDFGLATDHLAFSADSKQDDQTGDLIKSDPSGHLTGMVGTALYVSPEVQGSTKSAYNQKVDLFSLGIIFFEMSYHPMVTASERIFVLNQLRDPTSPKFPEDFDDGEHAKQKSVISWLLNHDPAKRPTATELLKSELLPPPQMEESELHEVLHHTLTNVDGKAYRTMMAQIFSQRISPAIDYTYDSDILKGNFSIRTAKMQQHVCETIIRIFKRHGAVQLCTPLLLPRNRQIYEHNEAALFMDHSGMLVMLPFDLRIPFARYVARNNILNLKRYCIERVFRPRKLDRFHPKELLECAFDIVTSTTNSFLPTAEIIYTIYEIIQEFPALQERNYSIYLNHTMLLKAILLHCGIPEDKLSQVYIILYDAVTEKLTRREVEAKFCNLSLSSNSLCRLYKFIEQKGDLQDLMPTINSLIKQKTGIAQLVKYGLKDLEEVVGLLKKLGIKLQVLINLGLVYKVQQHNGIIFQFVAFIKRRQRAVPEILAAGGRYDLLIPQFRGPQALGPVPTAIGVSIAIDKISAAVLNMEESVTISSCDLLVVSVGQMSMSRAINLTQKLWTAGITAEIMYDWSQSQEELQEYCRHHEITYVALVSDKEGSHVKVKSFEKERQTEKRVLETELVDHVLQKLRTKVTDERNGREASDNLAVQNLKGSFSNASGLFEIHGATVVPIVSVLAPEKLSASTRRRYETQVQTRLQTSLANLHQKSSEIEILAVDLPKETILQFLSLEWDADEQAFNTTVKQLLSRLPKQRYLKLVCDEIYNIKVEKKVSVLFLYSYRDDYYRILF
Conditions: not given
(In TR-FRET formats the signal depends on donor and acceptor labels being close together.)
`CNC(=O)c1ncn2c1CC[C@H](c1c(F)ccc(NS(=O)(=O)c3cc(Cl)cnc3OC)c1F)C2` [Compound 27-1, (6R)-6-[3-(5-chloro-2-methoxypyridine-3-sulfonamido)-2,6-difluorophenyl]-N-methyl-5H,6H,7H,8H-imidazo[1,5-a]pyridine-1-carboxamide] gave a pIC50 of 6.30 to 7.30.

The compound `CNC(=O)c1ncn2c1CC[C@@H](c1c(F)ccc(NS(=O)(=O)c3cc(Cl)cnc3OC)c1F)C2` [Compound 27-2, (6S)-6-[3-(5-chloro-2-methoxypyridine-3-sulfonamido)-2,6-difluorophenyl]-N-methyl-5H,6H,7H,8H-imidazo[1,5-a]pyridine-1-carboxamide] showed a pIC50 of 6.30 to 7.30.

For the compound `COc1ncc(Cl)cc1S(=O)(=O)Nc1ccc(F)c(-c2ccc3c(-c4nnc[nH]4)ncn3c2)c1F` [Compound 29, 5-chloro-N-[2,4-difluoro-3-[1-(4H-1,2,4-triazol-3-yl)imidazo[1,5-a]pyridin-6-yl]phenyl]-2-methoxypyridine-3-sulfonamide], the pIC50 is > 7.30.

Compound `COc1ncc(C#N)cc1S(=O)(=O)Nc1ccc(F)c(-c2ccc3c(-c4ccn(C)n4)ncn3c2)c1F` [Compound 53, 5-cyano-N-[2,4-difluoro-3-[1-(1-methylpyrazol-3-yl)imidazo[1,5-a]pyridin-6-yl]phenyl]-2-methoxypyridine-3-sulfonamide] gave a pIC50 of 6.30 to 7.30. On the same count and under the same terms, for `Cc1ncc(F)cc1S(=O)(=O)Nc1ccc(F)c(-c2ccc3c(-c4ccn(C)n4)ncn3c2)c1F` [Compound 54, N-[2,4-difluoro-3-[1-(1-methylpyrazol-3-yl)imidazo[1,5-a]pyridin-6-yl]phenyl]-5-fluoro-2-methylpyridine-3-sulfonamide] the value was 6.30 to 7.30.

The same assay, now with this note: GCN2 2 nM, 100 nM GFP-eIF2a, 150 μM ATP, TR-FRET.
`O=S(=O)(Nc1ccc(F)c(-c2ccc3c(-c4ncc[nH]4)ncn3c2)c1F)c1cc(F)cc2c1CCC2O` (centres unmarked) [Compound 28, N-[2,4-difluoro-3-[1-(1H-imidazol-2-yl)imidazo[1,5-a]pyridin-6-yl]phenyl]-6-fluoro-1-hydroxy-2,3-dihydro-1H-indene-4-sulfonamide]: the pIC50 is > 7.30. Same read-out and setting: the value for `CNC(=O)c1ncc2cc(-c3c(F)ccc(NS(=O)(=O)c4cc(Cl)cnc4OC)c3F)ccn12` [Compound 30, 7-[3-(5-chloro-2-methoxypyridine-3-sulfonamido)-2,6-difluorophenyl]-N-methylimidazo[1,5-a]pyridine-3-carboxamide] was > 7.30; that for `COc1ncc(Cl)cc1S(=O)(=O)Nc1ccc(F)c(-c2cn3cnc(-c4ncc[nH]4)c3cn2)c1F` [Compound 31, 5-chloro-N-[2,4-difluoro-3-[1-(1H-imidazol-2-yl)imidazo[1,5-a]pyrazin-6-yl]phenyl]-2-methoxypyridine-3-sulfonamide] was > 7.30; that for `COc1ncc(Cl)cc1S(=O)(=O)Nc1ccc(F)c(-c2ccc3c(-c4ccn[nH]4)ncn3c2)c1F` [Compound 32, 5-chloro-N-[2,4-difluoro-3-[1-(2H-pyrazol-3-yl)imidazo[1,5-a]pyridin-6-yl]phenyl]-2-methoxypyridine-3-sulfonamide] was > 7.30. Same read-out and setting: the value for `COc1ncc(Cl)cc1S(=O)(=O)Nc1ccc(F)c(-c2ccc3c(-c4cnn[nH]4)ncn3c2)c1F` [Compound 34, 5-chloro-N-[2,4-difluoro-3-[1-(3H-1,2,3-triazol-4-yl)imidazo[1,5-a]pyridin-6-yl]phenyl]-2-methoxypyridine-3-sulfonamide] was > 7.30. Still for that read-out and setting: for `COc1ncc(Cl)cc1S(=O)(=O)Nc1ccc(F)c(-c2ccn3c(-c4ncc[nH]4)ncc3c2)c1F` [Compound 35, 5-chloro-N-[2,4-difluoro-3-[3-(1H-imidazol-2-yl)imidazo[1,5-a]pyridin-7-yl]phenyl]-2-methoxypyridine-3-sulfonamide] the value was > 7.30. As for `COc1ncc(F)cc1S(=O)(=O)Nc1ccc(F)c(-c2ccn3c(-c4ncc[nH]4)ncc3c2)c1F` [Compound 36, N-[2,4-difluoro-3-[3-(1H-imidazol-2-yl)imidazo[1,5-a]pyridin-7-yl]phenyl]-5-fluoro-2-methoxypyridine-3-sulfonamide], the pIC50 is > 7.30. Still for that read-out and setting: for `COc1ncc(Cl)cc1S(=O)(=O)Nc1ccc(F)c(-c2ccc3c(-c4ccn(C)n4)ncn3c2)c1F` [Compound 37, 5-chloro-N-[2,4-difluoro-3-[1-(1-methylpyrazol-3-yl)imidazo[1,5-a]pyridin-6-yl]phenyl]-2-methoxypyridine-3-sulfonamide] the value was > 7.30; for `COc1ncc(Cl)cc1S(=O)(=O)Nc1ccc(F)c(-c2ccc3c(-c4ncc[nH]4)ncn3c2)c1C#N` [Compound 38, 5-chloro-N-[2-cyano-4-fluoro-3-[1-(1H-imidazol-2-yl)imidazo[1,5-a]pyridin-6-yl]phenyl]-2-methoxypyridine-3-sulfonamide], > 7.30. On the same count and under the same terms, for `N#Cc1cc2c(c(S(=O)(=O)Nc3ccc(F)c(-c4ccc5c(-c6ncc[nH]6)ncn5c4)c3F)c1)CCC2O` (centres unmarked) [Compound 39, 6-cyano-N-[2,4-difluoro-3-[1-(1H-imidazol-2-yl)imidazo[1,5-a]pyridin-6-yl]phenyl]-1-hydroxy-2,3-dihydro-1H-indene-4-sulfonamide] the value was > 7.30; for `COc1ncc(C#N)cc1S(=O)(=O)Nc1ccc(F)c(-c2ccn3c(-c4ncc[nH]4)ncc3c2)c1F` [Compound 40, 5-cyano-N-[2,4-difluoro-3-[3-(1H-imidazol-2-yl)imidazo[1,5-a]pyridin-7-yl]phenyl]-2-methoxypyridine-3-sulfonamide], > 7.30. Still for that read-out and setting: for `COc1ncc(Cl)cc1S(=O)(=O)Nc1ccc(F)c(-c2ccn3c(-c4ncc[nH]4)ncc3c2F)c1F` [Compound 41, 5-chloro-N-[2,4-difluoro-3-[8-fluoro-3-(1H-imidazol-2-yl)imidazo[1,5-a]pyridin-7-yl]phenyl]-2-methoxypyridine-3-sulfonamide] the value was > 7.30; for `COc1ncc(C#N)cc1S(=O)(=O)Nc1ccc(F)c(-c2ccn3c(-c4ncc[nH]4)ncc3c2F)c1F` [Compound 42, 5-cyano-N-[2,4-difluoro-3-[8-fluoro-3-(1H-imidazol-2-yl)imidazo[1,5-a]pyridin-7-yl]phenyl]-2-methoxypyridine-3-sulfonamide], > 7.30. For the compound `COc1ncc(Cl)cc1S(=O)(=O)Nc1ccc(F)c(-c2ccc3c(-c4nc(C#N)c[nH]4)ncn3c2)c1F` [Compound 43, N-[3-[1-(4-cyano-1H-imidazol-2-yl)imidazo[1,5-a]pyridin-6-yl]-2,4-difluorophenyl]-5-chloro-2-methoxypyridine-3-sulfonamide], the pIC50 is > 7.30. Take `Cc1ncc(F)cc1S(=O)(=O)Nc1ccc(F)c(-c2ccc3c(-c4nc(C#N)c[nH]4)ncn3c2)c1F` [Compound 44, N-[3-[1-(4-cyano-1H-imidazol-2-yl)imidazo[1,5-a]pyridin-6-yl]-2,4-difluorophenyl]-5-fluoro-2-methylpyridine-3-sulfonamide]: the pIC50 was > 7.30. The same measure, in the same setting: for `COc1ncc(F)cc1S(=O)(=O)Nc1ccc(F)c(-c2ccc3c(-c4nc(Cl)c[nH]4)ncn3c2)c1F` [Compound 45, N-[3-[1-(4-chloro-1H-imidazol-2-yl)imidazo[1,5-a]pyridin-6-yl]-2,4-difluorophenyl]-5-fluoro-2-methoxypyridine-3-sulfonamide] the value was > 7.30; for `COc1ncc(F)cc1S(=O)(=O)Nc1ccc(F)c(-c2ccc3c(-c4ccn(C)n4)ncn3c2)c1F` [Compound 46, N-[2,4-difluoro-3-[1-(1-methylpyrazol-3-yl)imidazo[1,5-a]pyridin-6-yl]phenyl]-5-fluoro-2-methoxypyridine-3-sulfonamide], > 7.30; for `COc1ncc(F)cc1S(=O)(=O)Nc1ccc(F)c(-c2ccn3c(-c4ncc[nH]4)ncc3c2F)c1F` [Compound 47, N-[2,4-difluoro-3-[8-fluoro-3-(1H-imidazol-2-yl)imidazo[1,5-a]pyridin-7-yl]phenyl]-5-fluoro-2-methoxypyridine-3-sulfonamide], > 7.30. The same measure, in the same setting: the value for `COc1ncc(Cl)cc1S(=O)(=O)Nc1ccc(F)c(-c2ccc3c(-c4ncc(C)[nH]4)ncn3c2)c1F` [Compound 48, 5-chloro-N-[2,4-difluoro-3-[1-(4-methyl-3H-imidazol-2-yl)imidazo[1,5-a]pyridine-6-yl]phenyl]-2-methoxypyridine-3-sulfonamide] was > 7.30. On the same count and under the same terms, for `COc1ncc(Cl)cc1S(=O)(=O)Nc1ccc(F)c(-c2ccc3c(-c4ncc(CO)[nH]4)ncn3c2)c1F` [Compound 49, 5-chloro-N-(2,4-difluoro-3-[1-[4-(hydroxymethyl)-3H-imidazol-2-yl]imidazo[1,5-a]pyridin-6-yl]phenyl)-2-methoxypyridine-3-sulfonamide] the value was > 7.30; for `Cc1cnc(-c2ncn3cc(-c4c(F)ccc(NS(=O)(=O)c5cc(F)cnc5C)c4F)ccc23)[nH]1` [Compound 50, N-[2,4-difluoro-3-[1-(4-methyl-3H-imidazol-2-yl)imidazo[1,5-a]pyridin-6-yl]phenyl]-5-fluoro-2-methylpyridine-3-sulfonamide], > 7.30.

On to `Cc1ncc(F)cc1S(=O)(=O)Nc1ccc(F)c(-c2ccc3c(-c4ncc(CO)[nH]4)ncn3c2)c1F` [Compound 51, N-(2,4-difluoro-3-[1-[4-(hydroxymethyl)-3H-imidazol-2-yl]imidazo[1,5-a]pyridin-6-yl]phenyl)-5-fluoro-2-methylpyridine-3-sulfonamide], for which the pIC50 is > 7.30. Consider `COc1ncc(Cl)cc1S(=O)(=O)Nc1ccc(F)c(-c2ccc3c(-c4nc(Cl)c[nH]4)ncn3c2)c1F` [Compound 52, 5-chloro-N-[3-[1-(4-chloro-1H-imidazol-2-yl)imidazo[1,5-a]pyridin-6-yl]-2,4-difluorophenyl]-2-methoxypyridine-3-sulfonamide], for which the pIC50 is > 7.30. On the same count and under the same terms, the value for `COc1ncc(Cl)cc1S(=O)(=O)Nc1ccc(F)c(-c2ccc3c(-n4ccnn4)ncn3c2)c1F` [Compound 55-1, 5-chloro-N-[2,4-difluoro-3-[1-(1,2,3-triazol-1-yl)imidazo[1,5-a]pyridin-6-yl]phenyl]-2-methoxypyridine-3-sulfonamide] was > 7.30.
